In patent US9499519B2, “Fused pyrimidine compounds and use thereof” (Medivation Technologies, Inc., priority 2012, dated 2016) one finds inhibition and IC50 data, which are given here for six compounds.

One may read the inhibition as the percentage by which the read-out fell short of the control. Usually IC50 stands for the midpoint of a concentration-inhibition curve. Low readings indicate greater potency, high ones weaker potency.

Holding throughout (assay type): biochemical
The target in experiment [1] is T1, c-Mer (Homo sapiens, UniProt Q12866).
T1 sequence (Q12866 21-999): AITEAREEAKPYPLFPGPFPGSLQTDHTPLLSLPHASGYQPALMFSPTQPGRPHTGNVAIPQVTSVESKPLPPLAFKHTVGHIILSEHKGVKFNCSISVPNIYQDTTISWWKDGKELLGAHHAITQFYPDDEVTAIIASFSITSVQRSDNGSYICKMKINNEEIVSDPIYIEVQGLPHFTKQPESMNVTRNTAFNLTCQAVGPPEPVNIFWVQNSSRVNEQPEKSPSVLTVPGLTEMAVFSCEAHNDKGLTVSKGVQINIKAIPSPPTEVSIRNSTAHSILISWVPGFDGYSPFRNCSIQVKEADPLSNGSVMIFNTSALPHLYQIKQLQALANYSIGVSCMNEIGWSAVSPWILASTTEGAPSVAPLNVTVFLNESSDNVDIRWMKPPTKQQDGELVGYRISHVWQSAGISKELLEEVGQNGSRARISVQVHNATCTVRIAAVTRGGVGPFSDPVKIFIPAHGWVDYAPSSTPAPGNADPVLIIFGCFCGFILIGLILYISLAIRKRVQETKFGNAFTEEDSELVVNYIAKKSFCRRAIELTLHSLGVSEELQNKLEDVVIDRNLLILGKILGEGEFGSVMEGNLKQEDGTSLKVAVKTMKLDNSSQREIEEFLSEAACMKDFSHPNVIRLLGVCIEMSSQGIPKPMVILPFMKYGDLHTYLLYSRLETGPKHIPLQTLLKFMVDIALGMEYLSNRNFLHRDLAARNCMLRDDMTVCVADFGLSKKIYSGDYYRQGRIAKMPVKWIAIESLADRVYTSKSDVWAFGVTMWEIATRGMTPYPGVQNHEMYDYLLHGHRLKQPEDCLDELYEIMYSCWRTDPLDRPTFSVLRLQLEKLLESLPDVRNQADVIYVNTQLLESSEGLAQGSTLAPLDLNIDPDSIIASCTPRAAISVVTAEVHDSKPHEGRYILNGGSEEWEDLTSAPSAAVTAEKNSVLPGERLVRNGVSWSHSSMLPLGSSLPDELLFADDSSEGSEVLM
The experiment in a line: HotSpot kinase assay: c-Mer. To be noted: 100 nM compound, read-out: % Enzyme Inhibition @ 100 nM c-MER. The procedure: (§1) Kinase assays were performed using additional compounds against a panel of 4 kinases: AXL; c-Met; c-Mer; and Trk C. Each compound was tested at a concentration of […] in single duplicate mode against the 4 kinases. Compounds were prepared as 10 mM stock solutions in DMSO prior to use in the assay. […] IC50 values and curve fits were obtained using Prism (GraphPad Software).
(§2) The screening was performed using the “HotSpot” assay platform. The assay measures the conversion of a peptide substrate to ^33P-labelled phosphorylated product. Briefly, specific kinase/substrate pairs along with required cofactors were prepared in reaction buffer. Specifically, the substrate was prepared in reaction buffer (20 mM Hepes, pH 7.5; 10 mM MgCl2; 1 mM EGTA; 0.02% Brij35; 0.02 mg/mL BSA; 0.1 mM Na3VO4; 2 mM DTT; 1% DMSO), followed by delivery of any required cofactor to the resulting substrate solution. The corresponding kinase was delivered into the substrate solution and the reaction mixture was mixed gently. Compound was delivered into the reaction mixture, followed 15-20 minutes later by addition of a mixture of ATP (Sigma, St. Louis Mo.) and ^33P ATP (specific activity 0.01 μCi/μL final; Perkin Elmer, Waltham, Mass.) to a final concentration of 10 μM-30 μM to initiate the reaction. […] The percent of enzyme inhibition was calculated based on the percent of remaining kinase activity.

Experiment [2] has as its target Trk C (Homo sapiens, UniProt Q16288). Description: HotSpot kinase assay: Trk C. To be noted: 100 nM compound; HotSpot; read-out: % Enzyme Inhibition @ 100 nM Trk C. The procedure:
(§3) Each compound was tested at a concentration of 0.1 μM in single duplicate mode against the 3 kinases. Compounds were prepared as 10 mM stock solutions in DMSO prior to use in the assay. […] IC50 values and curve fits were obtained using Prism (GraphPad Software).
as §2, §1

Experiment [3] deals with T2, IGF-1R (Homo sapiens, UniProt P08069).
T2 construct: purchased Millipore 14-802
T2 sequence (P08069 31-1367): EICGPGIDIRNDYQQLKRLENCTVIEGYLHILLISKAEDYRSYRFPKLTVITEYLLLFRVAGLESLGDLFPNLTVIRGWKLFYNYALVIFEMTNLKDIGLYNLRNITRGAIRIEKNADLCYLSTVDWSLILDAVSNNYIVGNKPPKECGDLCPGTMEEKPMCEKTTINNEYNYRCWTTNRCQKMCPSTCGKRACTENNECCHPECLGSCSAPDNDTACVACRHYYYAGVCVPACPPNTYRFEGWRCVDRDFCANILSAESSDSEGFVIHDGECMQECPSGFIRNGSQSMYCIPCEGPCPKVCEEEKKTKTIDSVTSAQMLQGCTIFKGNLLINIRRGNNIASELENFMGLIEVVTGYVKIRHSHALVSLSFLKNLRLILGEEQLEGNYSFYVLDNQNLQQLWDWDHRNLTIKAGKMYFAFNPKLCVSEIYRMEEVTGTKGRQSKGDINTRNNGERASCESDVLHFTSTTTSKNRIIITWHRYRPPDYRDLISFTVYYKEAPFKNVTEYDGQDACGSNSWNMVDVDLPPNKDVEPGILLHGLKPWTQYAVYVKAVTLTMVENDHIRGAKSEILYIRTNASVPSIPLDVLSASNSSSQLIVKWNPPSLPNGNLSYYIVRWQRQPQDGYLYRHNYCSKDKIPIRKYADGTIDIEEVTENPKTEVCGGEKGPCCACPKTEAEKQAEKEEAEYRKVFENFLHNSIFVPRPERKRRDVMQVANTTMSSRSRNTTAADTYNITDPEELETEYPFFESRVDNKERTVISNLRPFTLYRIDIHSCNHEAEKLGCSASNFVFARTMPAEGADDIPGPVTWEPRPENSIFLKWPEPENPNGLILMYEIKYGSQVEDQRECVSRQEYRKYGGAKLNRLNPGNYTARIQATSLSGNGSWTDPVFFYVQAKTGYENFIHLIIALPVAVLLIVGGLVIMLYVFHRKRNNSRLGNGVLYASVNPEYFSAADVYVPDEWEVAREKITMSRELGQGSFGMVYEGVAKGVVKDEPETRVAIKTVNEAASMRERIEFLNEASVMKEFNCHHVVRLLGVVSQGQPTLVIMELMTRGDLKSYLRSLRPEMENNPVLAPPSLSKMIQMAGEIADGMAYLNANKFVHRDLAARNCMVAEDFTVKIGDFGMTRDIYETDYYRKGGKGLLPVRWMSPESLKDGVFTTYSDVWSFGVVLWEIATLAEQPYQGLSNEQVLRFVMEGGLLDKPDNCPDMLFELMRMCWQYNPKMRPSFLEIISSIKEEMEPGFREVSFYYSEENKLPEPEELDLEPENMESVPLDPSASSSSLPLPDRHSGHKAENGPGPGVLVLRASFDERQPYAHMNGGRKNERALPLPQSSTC
The experiment in a line: In vitro IGF-1R enzymatic assay (ADP-Glo kinase assay). To be noted: activated IGF-1R; for inhibition at 1 µM: in duplicate, read-out: inhibition of binding. The procedure:
(§4) IC50 values of the compounds of the invention against IGF-1R and IR were measured in vitro using an ADP-Glo kinase assay Kit (Promega). […] Kinase reactions in both assays were conducted at 30° C. for 20 min with increasing concentrations of compounds of the invention.
Additional compounds of the invention were screened against activated IGF-1R.
A general note: ADP-Glo first removes unused ATP, then detects ADP through luciferase.

Experiment [4] concerns the target T3, IR (Homo sapiens, UniProt P06213).
T3 construct: purchased Millipore 14-803
Description: In vitro IR enzymatic assay (ADP-Glo kinase assay). To be noted: activated IR. The procedure:
as §4
Additional compounds of the invention were screened against activated IR.

The target of experiment [5] is T4, AXL (Homo sapiens, UniProt P30530).
T4 sequence (P30530 26-894): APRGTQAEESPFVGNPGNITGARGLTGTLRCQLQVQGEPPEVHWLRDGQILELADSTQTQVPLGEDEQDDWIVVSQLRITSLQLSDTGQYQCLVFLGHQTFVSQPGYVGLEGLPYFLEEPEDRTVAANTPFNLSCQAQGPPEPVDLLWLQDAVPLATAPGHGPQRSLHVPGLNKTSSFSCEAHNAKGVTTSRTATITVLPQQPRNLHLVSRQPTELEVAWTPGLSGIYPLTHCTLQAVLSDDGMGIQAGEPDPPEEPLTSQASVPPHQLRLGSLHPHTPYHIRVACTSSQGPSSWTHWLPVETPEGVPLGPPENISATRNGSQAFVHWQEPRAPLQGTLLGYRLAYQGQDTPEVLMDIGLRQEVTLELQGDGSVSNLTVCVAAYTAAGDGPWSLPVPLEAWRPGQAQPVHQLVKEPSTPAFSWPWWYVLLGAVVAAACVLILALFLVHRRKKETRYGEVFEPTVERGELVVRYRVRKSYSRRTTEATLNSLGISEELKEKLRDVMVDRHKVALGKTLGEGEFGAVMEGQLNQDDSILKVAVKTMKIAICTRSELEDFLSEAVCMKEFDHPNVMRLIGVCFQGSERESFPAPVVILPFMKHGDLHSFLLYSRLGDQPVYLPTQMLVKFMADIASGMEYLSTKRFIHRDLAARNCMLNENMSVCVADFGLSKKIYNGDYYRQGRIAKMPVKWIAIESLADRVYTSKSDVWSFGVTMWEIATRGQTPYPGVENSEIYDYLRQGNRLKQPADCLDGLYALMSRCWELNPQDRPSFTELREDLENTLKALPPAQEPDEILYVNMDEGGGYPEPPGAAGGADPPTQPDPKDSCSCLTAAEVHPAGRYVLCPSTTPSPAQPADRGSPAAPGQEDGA
Description: HotSpot kinase assay: AXL. To be noted: 100 nM compound, read-out: % Enzyme Inhibition @ 100 nM AXL. The method, then: as §1, §2

In experiment [6] the target is c-Met (Homo sapiens, UniProt P08581). The experiment in a line: HotSpot kinase assay: c-Met. To be noted: 100 nM compound, read-out: % Enzyme Inhibition @ 100 nM c-MET. The procedure:
as §1, §2

The target in experiment [7] is T3, IR. The experiment in a line: In vitro IR enzymatic assay (ADP-Glo kinase assay). To be noted: activated IR, in duplicate, read-out: inhibition of binding.
Experiment [8] addresses Trk B (Homo sapiens, UniProt Q16620). Description: HotSpot kinase assay: Trk B. To be noted: 100 nM compound, read-out: % Enzyme Inhibition @ 100 nM Trk B. The method, then: as §3, §2
For experiment [9], the target named is Trk A (Homo sapiens, UniProt P04629). The experiment in a line: HotSpot kinase assay: Trk A. To be noted: 100 nM compound, read-out: % Enzyme Inhibition @ 100 nM Trk A. The method, then: Kinase assays were performed using additional compounds against a panel of 3 kinases: Trk A; Trk B; and Trk C. Each compound was tested at a concentration of 0.1 μM in single duplicate mode against the 3 kinases. Compounds were prepared as 10 mM stock solutions in DMSO prior to use in the assay. […] IC50 values and curve fits were obtained using Prism (GraphPad Software). […]
The screening was performed using the “HotSpot” assay platform. The assay measures the conversion of a peptide substrate to ^33P-labelled phosphorylated product. Briefly, specific kinase/substrate pairs along with required cofactors were prepared in reaction buffer. Specifically, the substrate was prepared in reaction buffer (20 mM Hepes, pH 7.5; 10 mM MgCl2; 1 mM EGTA; 0.02% Brij35; 0.02 mg/mL BSA; 0.1 mM Na3VO4; 2 mM DTT; 1% DMSO), followed by delivery of any required cofactor to the resulting substrate solution. The corresponding kinase was delivered into the substrate solution and the reaction mixture was mixed gently. Compound was delivered into the reaction mixture, followed 15-20 minutes later by addition of a mixture of ATP (Sigma, St. Louis Mo.) and ^33P ATP (specific activity 0.01 μCi/μL final; Perkin Elmer, Waltham, Mass.) to a final concentration of 10 μM-30 μM to initiate the reaction. Reactions were carried out at room temperature for 120 minutes, followed by spotting of the reactions onto P81 ion exchange filter paper (Whatman #3698-915; Whatman Inc., Piscataway, N.J.). Unbound phosphate was removed by extensive washing of filters in 0.75% phosphoric acid. […] The percent of enzyme inhibition was calculated based on the percent of remaining kinase activity.

T3 sequence (P06213 28-1382): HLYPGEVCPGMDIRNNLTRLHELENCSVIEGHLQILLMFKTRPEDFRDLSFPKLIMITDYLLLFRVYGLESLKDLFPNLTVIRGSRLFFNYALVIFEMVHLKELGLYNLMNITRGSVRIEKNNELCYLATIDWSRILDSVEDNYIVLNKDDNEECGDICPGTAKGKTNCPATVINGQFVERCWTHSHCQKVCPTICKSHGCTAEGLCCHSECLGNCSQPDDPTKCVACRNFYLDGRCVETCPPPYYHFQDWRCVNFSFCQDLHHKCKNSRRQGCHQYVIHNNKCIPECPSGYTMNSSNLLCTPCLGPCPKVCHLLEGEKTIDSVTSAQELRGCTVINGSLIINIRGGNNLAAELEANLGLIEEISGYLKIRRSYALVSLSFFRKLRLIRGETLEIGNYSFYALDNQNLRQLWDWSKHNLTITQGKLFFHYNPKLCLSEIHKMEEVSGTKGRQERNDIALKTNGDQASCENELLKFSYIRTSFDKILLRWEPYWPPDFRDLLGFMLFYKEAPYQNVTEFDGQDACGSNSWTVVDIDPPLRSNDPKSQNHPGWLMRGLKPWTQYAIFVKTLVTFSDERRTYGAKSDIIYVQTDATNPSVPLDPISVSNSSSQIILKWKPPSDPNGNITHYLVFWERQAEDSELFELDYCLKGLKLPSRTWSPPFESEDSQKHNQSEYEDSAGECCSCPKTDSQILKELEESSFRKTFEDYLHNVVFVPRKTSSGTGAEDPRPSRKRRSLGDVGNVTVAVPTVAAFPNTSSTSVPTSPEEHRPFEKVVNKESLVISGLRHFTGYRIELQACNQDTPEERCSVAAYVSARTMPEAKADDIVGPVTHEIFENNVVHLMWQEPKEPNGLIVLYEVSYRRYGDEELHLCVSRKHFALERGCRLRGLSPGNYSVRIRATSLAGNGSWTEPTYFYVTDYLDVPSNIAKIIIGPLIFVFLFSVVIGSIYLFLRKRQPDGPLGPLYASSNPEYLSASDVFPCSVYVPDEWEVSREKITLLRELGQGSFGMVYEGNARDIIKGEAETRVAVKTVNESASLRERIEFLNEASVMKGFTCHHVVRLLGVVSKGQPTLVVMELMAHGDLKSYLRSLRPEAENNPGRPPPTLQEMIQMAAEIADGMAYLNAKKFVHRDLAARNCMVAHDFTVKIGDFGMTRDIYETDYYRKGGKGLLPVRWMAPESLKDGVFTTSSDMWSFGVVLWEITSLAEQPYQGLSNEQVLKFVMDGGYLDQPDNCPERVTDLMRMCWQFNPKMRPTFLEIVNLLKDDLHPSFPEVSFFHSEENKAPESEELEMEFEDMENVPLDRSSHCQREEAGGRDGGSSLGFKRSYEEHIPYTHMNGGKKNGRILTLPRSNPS
Trk C, sequence (Q16288 32-839): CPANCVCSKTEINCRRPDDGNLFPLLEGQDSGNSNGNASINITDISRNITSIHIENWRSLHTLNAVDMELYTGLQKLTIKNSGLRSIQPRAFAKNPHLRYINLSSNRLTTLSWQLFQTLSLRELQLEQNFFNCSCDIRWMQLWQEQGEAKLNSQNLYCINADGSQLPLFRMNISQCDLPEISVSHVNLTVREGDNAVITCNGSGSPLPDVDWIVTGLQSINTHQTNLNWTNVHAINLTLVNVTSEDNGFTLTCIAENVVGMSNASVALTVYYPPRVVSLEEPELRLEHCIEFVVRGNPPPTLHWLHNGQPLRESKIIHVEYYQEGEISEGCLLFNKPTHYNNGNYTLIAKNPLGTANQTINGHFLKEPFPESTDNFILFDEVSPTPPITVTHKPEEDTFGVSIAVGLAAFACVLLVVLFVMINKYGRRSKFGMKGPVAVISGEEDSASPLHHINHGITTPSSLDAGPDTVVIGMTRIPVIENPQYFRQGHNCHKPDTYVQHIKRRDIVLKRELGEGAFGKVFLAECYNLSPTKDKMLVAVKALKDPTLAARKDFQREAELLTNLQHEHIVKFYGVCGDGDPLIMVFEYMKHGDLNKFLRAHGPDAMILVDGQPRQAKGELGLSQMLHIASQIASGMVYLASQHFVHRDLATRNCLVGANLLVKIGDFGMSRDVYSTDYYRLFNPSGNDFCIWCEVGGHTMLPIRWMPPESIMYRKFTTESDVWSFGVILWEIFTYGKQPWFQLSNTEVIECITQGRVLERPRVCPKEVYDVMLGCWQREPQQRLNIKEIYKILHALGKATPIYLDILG
c-Met, sequence (P08581 25-1390): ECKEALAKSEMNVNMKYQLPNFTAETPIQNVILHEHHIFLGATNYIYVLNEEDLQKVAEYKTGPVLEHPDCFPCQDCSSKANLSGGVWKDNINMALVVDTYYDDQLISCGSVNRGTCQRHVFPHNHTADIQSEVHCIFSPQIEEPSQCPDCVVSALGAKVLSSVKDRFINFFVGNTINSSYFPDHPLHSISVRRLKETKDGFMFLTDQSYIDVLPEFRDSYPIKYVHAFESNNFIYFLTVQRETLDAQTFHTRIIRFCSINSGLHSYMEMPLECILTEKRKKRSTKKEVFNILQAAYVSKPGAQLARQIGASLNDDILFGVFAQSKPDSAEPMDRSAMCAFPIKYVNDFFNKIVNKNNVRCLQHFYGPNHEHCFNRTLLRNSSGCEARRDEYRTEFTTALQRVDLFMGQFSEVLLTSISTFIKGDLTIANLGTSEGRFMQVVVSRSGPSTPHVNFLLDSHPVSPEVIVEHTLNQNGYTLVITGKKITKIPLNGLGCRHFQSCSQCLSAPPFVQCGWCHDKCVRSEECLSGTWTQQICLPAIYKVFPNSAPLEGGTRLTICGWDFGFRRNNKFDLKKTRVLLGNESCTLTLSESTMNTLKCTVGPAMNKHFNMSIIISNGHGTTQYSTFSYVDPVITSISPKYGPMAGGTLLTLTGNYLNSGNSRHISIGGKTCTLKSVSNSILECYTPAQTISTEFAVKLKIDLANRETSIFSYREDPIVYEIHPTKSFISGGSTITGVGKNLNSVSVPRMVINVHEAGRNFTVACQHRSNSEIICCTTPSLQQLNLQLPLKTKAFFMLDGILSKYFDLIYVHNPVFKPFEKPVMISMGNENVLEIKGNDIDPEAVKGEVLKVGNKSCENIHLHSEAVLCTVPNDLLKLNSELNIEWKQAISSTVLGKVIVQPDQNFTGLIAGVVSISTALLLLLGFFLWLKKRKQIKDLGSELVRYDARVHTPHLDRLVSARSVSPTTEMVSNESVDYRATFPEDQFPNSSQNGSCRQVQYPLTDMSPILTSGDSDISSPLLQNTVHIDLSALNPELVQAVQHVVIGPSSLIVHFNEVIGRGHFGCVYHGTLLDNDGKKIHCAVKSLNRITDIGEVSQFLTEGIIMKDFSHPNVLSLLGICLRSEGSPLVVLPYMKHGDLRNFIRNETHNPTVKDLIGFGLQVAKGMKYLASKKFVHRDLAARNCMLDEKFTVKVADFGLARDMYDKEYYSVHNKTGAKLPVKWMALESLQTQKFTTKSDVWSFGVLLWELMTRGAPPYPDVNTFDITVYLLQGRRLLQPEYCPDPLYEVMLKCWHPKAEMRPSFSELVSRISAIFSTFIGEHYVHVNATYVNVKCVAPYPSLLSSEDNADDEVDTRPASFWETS

Take `CC(C)c1cc(Nc2nc(N3CCCC3C(=O)N3CCCCC3)nc3c2CCC3)n[nH]1` (stereo not shown) [Compound 73b, (1-(4-(5-isopropyl-1H-pyrazol-3-ylamino)-6,7-dihydro-5H-cyclopenta[d]pyrimidin-2-yl)pyrrolidin2--yl)(piperidin-1-yl)methanone]: the inhibition at 0.1 µM in [1] is under 39%; in experiment [2] it was over 60%; in [5], under 39%; in [6], under 39%. The figures for the IC50 in [3] and in experiment [4] were 1400 nM and 1300 nM, respectively.

With `O=C(Nc1ccc(F)nc1)C1CCCN1c1nc2c(c(Nc3ccc(=O)[nH]n3)n1)CCC2` (stereo not shown) [Compound 101b, N-(6-fluoropyridin-3-yl)-1-(4-(6-oxo-1,6-dihydropyridazin-3-ylamino)-6,7-dihydro-5H-cyclopenta[d]pyrimidin-2-yl)pyrrolidine-2-carboxamide], the inhibition at 0.1 µM in experiment [1], in [2], in [5] and in [6] was under 39% in each case.

As for `O=C(Nc1ccc(F)nc1)C1CCCN1c1nc2c(c(Nc3ccccn3)n1)CCC2` (stereo not shown) [Compound 102a, N-(6-fluoropyridin-3-yl)-1-(4-(pyridin-2-ylamino)-6,7-dihydro-5H-cyclopenta[d]pyrimidin-2-yl)pyrrolidine-2-carboxamide], the inhibition at 0.1 µM in experiment [1], in experiment [2], in [5] and in experiment [6] was under 39% each time.

Take `O=C(Nc1nccs1)C1CCCN1c1nc2c(c(Nc3ncccn3)n1)CCC2` (stereo not shown) [Compound 105a, 1-(4-(pyrimidin-2-ylamino)-6,7-dihydro-5H-cyclopenta[d]pyrimidin-2-yl)-N-(thiazol-2-yl)pyrrolidine-2-carboxamide]: the inhibition at 0.1 µM in [1], in experiment [2], in [5] and in experiment [6] was under 39% in each case.

As for `CN(C)C(=O)C1CCCN1c1nc2c(c(Nc3cc(C4CCCC4)[nH]n3)n1)CCC2` (stereo not shown) [Compound 115a, 1-(4-(5-cyclopentyl-1H-pyrazol-3-ylamino)-6,7-dihydro-5H-cyclopenta[d]pyrimidin-2-yl)-N,N-dimethylpyrrolidine-2-carboxamide], the inhibition at 1 µM in [7] was at most 40%; in experiment [3] it was under 35%. Besides, the figures for the inhibition at 0.1 µM in experiment [2], in [8] and in experiment [9] were over 60%, over 60% and under 39%, respectively.

With `CCN(CC)C(=O)C1CCCN1c1nc2c(c(Nc3cc(C4CCCC4)[nH]n3)n1)CCC2` (stereo not shown) [Compound 116a, 1-(4-(5-cyclopenxyl-1H-pyrazol-3-ylamino)-6,7-dihydro-5H-cyclopenta[d]pyrimidin-2-yl)-N,N-diethylpyrrolidine-2-carboxamide], the results for the inhibition at 1 µM in [7] and in [3] were at most 40% and under 35%, respectively. In addition, the inhibition at 0.1 µM was over 60% in experiment [2], over 60% in experiment [8] and under 39% in experiment [9].
